{"source": "patent US20250270170A1", "about": "“2,3-DIMETHOXY-5-METHYL-1,4-BENZOQUINONE ALKYL ALCOHOL DERIVATIVE AND USE THEREOF” (BEIJING ANJIANXI BIO-MEDICAL TECHNOLOGY CO., LTD., priority 2021, published 2025)", "key": {"[1]": {"system": "human colorectal cancer HT29 transplanted tumor", "assay": "Example 10: tumor growth in HT-29 transplanted tumor model", "format": "in vivo, nude mice", "settings": "HT-29 model, DDP 5 mg/kg i.p. QW × 3, R01 18 mg/kg i.g. BID × 28", "experimental": "The human colorectal cancer cell lines HT-29 were obtained from the Cell Bank of the Type Culture Collection Committee of Chinese Academy of Sciences (CAS, cryopreserved in liquid nitrogen in this assay).\nHT-29 cells were routinely cultured in a McCoy […] containing 10% fetal bovine serum under culture conditions of 37° C. and 5% CO2. The cells were digested with 0.25% trypsin, and passaged according to the cell growth conditions with a passaging ratio of 1:3 to 1:4.\nOn D1 of the assay, the HT-29 cells in the logarithmic growth phase were collected, counted and resuspended in serum-free McCoy, and the cell concentration was adjusted to 4×10^7 cells/mL. The cells were pipetted with a pipette to disperse them evenly, and the cells were put into a 50-mL centrifuge tube, which was placed in an ice box. A 1-mL syringe was used to draw the cell suspension, which was injected subcutaneously into the axilla of the front right limb of a nude mouse. Each animal was inoculated with 100 μL (4×10^6 cells/mouse) to establish a HT-29 transplanted tumor model in nude mice. After the inoculation, the animal status and tumor growth were regularly observed. On D12, the tumor diameter was measured using an electronic vernier caliper. The data were input into an Excel spreadsheet to calculate the tumor volume. Tumor-bearing mice in good health and with similar tumor volumes (103 to 179 mm^3) were selected and divided into groups using randomized block method. After the start of the assay, the tumor diameter was measured regularly, the tumor volume was calculated, and the animal body weight was also weighed and recorded."}, "[2]": {"assay": "Example 3: body weight of NCI-N87 tumor-bearing nude mice", "format": "in vivo, BALB/c nude mice", "settings": "for Mean animal body weight / body weight loss rate: DDP 4/4/5/5 mg/kg i.p. QW×4", "experimental": "The NCI-N87 cells in the logarithmic growth phase were collected, counted and resuspended in a serum-free RPMI-1640 medium, and the cell concentration was adjusted to 5×10^7 cells/mL. The cells were pipetted with a pipette to disperse them evenly, and the cells were put into a 50-mL centrifuge tube, which was placed in an ice box. A 1-mL syringe was used to draw the cell suspension, which was injected subcutaneously into the axilla of the front right limb of a nude mouse. Each animal was inoculated with 100 μL (5×10^6 cells/mouse) to establish an NCI-N87 transplanted tumor model in nude mice. After the inoculation, the animal status and tumor growth were regularly observed, and the tumor diameter was measured using an electronic vernier caliper. The data were input into an Excel spreadsheet to calculate the tumor volume. When the tumor volume reached 100 to 300 mm^3, 72 animals in good health and with similar tumor volumes were selected and divided into 9 groups (n=8) using randomized block method. The day of grouping was regarded as the first day of the assay (D1). After the start of the assay, the tumor diameter was measured twice a week, the tumor volume was calculated, and the animal body weight was also weighed and recorded. [table] The calculation formula of animal weight loss rate is: wherein BWt represents the animal body weight measured each time during the administration period; BWinitial represents the animal body weight when being grouped for administration. The assay data were calculated and processed statistically using Microsoft Office Excel 2007 software. Unless otherwise specified, the data were expressed as mean±standard error (Mean±SE), and t-test was used for comparison between two groups."}, "[3]": {"system": "human gastric cancer NCI-N87 transplanted tumor", "assay": "Example 7: tumor growth in NCI-N87 transplanted tumor model, alone and combined with DDP", "format": "in vivo, nude mice", "settings": "DDP 4/2/1/4 mg/kg IP"}, "[4]": {"assay": "Example 7: serum UREA content", "format": "in vivo, nude mice", "settings": "DDP 4/2/1/4 mg/kg IP"}}, "note": "Where “and” joins values, the source holds several entries; their conditions need not be identical. Equal entries are not always repeated. Marks after values point to notes of the source that are not given here."}
{"compound": "N.N.[Cl][Pt][Cl]", "note": "[DDP, cisplatin]", "values": [{"measurement": "Mean tumor volume ± SE", "setting": "[1]; D 12 (grouping)", "result": "131 ± 8", "unit": "mm^3"}, {"measurement": "Mean tumor volume ± SE", "setting": "[1]; D 15", "result": "178 ± 10", "unit": "mm^3"}, {"measurement": "tumor growth inhibition rate", "setting": "[1]; D 15", "result": "(37%)"}, {"measurement": "Mean tumor volume ± SE", "setting": "[1]; D 19", "result": "263 ± 11** mm^3"}, {"measurement": "tumor growth inhibition rate", "setting": "[1]; D 19", "result": "(48%)"}, {"measurement": "Mean tumor volume ± SE", "setting": "[1]; D 22", "result": "383 ± 25** mm^3"}, {"measurement": "tumor growth inhibition rate", "setting": "[1]; D 22", "result": "(36%)"}, {"measurement": "Mean tumor volume ± SE", "setting": "[1]; D 26", "result": "484 ± 28** mm^3"}, {"measurement": "tumor growth inhibition rate", "setting": "[1]; D 26", "result": "(39%)"}, {"measurement": "Mean tumor volume ± SE", "setting": "[1]; D 29", "result": "582 ± 25** mm^3"}, {"measurement": "tumor growth inhibition rate", "setting": "[1]; D 29", "result": "(44%)"}, {"measurement": "Mean tumor volume ± SE", "setting": "[1]; D 33", "result": "693 ± 34** mm^3"}, {"measurement": "tumor growth inhibition rate", "setting": "[1]; D 33", "result": "(48%)"}, {"measurement": "Mean tumor volume ± SE", "setting": "[1]; D 36", "result": "777 ± 38** mm^3"}, {"measurement": "tumor growth inhibition rate", "setting": "[1]; D 36", "result": "(47%)"}, {"measurement": "Mean tumor volume ± SE", "setting": "[1]; D 40", "result": "896 ± 56** mm^3"}, {"measurement": "tumor growth inhibition rate", "setting": "[1]; D 40", "result": "(45%)"}, {"measurement": "Mean animal body weight", "setting": "[2]; D13", "result": "18.5 ± 0.4", "unit": "g"}, {"measurement": "Mean animal body weight", "setting": "[2]; D16", "result": "17.3 ± 0.4", "unit": "g"}, {"measurement": "body weight loss rate", "setting": "[2]; D16", "result": "(6.2%)"}, {"measurement": "Mean animal body weight", "setting": "[2]; D20", "result": "17.6 ± 0.4", "unit": "g"}, {"measurement": "body weight loss rate", "setting": "[2]; D20", "result": "(4.8%)"}, {"measurement": "Mean animal body weight", "setting": "[2]; D23", "result": "17.5 ± 0.4", "unit": "g"}, {"measurement": "body weight loss rate", "setting": "[2]; D23", "result": "(5.1%)"}, {"measurement": "Mean animal body weight", "setting": "[2]; D27", "result": "18.3 ± 0.6", "unit": "g"}, {"measurement": "body weight loss rate", "setting": "[2]; D27", "result": "(1.1%)"}, {"measurement": "Mean animal body weight", "setting": "[2]; D30", "result": "17.6 ± 0.4", "unit": "g"}, {"measurement": "body weight loss rate", "setting": "[2]; D30", "result": "(4.7%)"}, {"measurement": "Mean animal body weight", "setting": "[2]; D34", "result": "17.7 ± 0.4", "unit": "g"}, {"measurement": "body weight loss rate", "setting": "[2]; D34", "result": "(4.3%)"}, {"measurement": "Mean animal body weight", "setting": "[2]; D37", "result": "17.2 ± 0.4", "unit": "g"}, {"measurement": "body weight loss rate", "setting": "[2]; D37", "result": "(6.8%)"}, {"measurement": "Mean animal body weight", "setting": "[2]; D44", "result": "16.8 ± 0.4", "unit": "g"}, {"measurement": "body weight loss rate", "setting": "[2]; D44", "result": "(8.9%)"}, {"measurement": "effect on body weight compared with blank control group", "setting": "[2]; NCI-N87 tumor-bearing nude mice, summary of Table 6", "result": "decreased significantly"}, {"measurement": "Mean tumor volume", "setting": "[3]; D12", "result": "155 ± 6", "unit": "mm^3"}, {"measurement": "Mean tumor volume", "setting": "[3]; D16", "result": "241 ± 6", "unit": "mm^3"}, {"measurement": "tumor growth inhibition rate (TGI)", "setting": "[3]; D16", "result": 15, "unit": "%"}, {"measurement": "Mean tumor volume", "setting": "[3]; D19", "result": "294 ± 6* mm^3"}, {"measurement": "tumor growth inhibition rate (TGI)", "setting": "[3]; D19", "result": 18, "unit": "%"}, {"measurement": "Mean tumor volume", "setting": "[3]; D23", "result": "341 ± 13** mm^3"}, {"measurement": "tumor growth inhibition rate (TGI)", "setting": "[3]; D23", "result": 28, "unit": "%"}, {"measurement": "Mean tumor volume", "setting": "[3]; D26", "result": "419 ± 22** mm^3"}, {"measurement": "tumor growth inhibition rate (TGI)", "setting": "[3]; D26", "result": 34, "unit": "%"}, {"measurement": "Mean tumor volume", "setting": "[3]; D30", "result": "543 ± 32** mm^3"}, {"measurement": "tumor growth inhibition rate (TGI)", "setting": "[3]; D30", "result": 40, "unit": "%"}, {"measurement": "Mean tumor volume", "setting": "[3]; D33", "result": "642 ± 35** mm^3"}, {"measurement": "tumor growth inhibition rate (TGI)", "setting": "[3]; D33", "result": 39, "unit": "%"}, {"measurement": "Mean tumor volume", "setting": "[3]; D37", "result": "810 ± 61* mm^3"}, {"measurement": "tumor growth inhibition rate (TGI)", "setting": "[3]; D37", "result": 36, "unit": "%"}, {"measurement": "Mean tumor volume", "setting": "[3]; D40", "result": "911 ± 80* mm^3"}, {"measurement": "tumor growth inhibition rate (TGI)", "setting": "[3]; D40", "result": 36, "unit": "%"}, {"measurement": "Mean tumor volume", "setting": "[3]; D44", "result": "1035 ± 95* mm^3"}, {"measurement": "tumor growth inhibition rate (TGI)", "setting": "[3]; D44", "result": 35, "unit": "%"}, {"measurement": "Serum UREA content, Mean", "setting": "[4]", "result": 10.28, "unit": "mmol serum^−1"}, {"measurement": "Serum UREA content, individual animals No1-No6", "setting": "[4]", "result": "8.06 mmol serum^−1 and 12.81 mmol serum^−1 and 15.45 mmol serum^−1 and 8.28 mmol serum^−1 and 10.47 mmol serum^−1 and 6.62 mmol serum^−1"}]}
